Experimental findings from ChEMBL document CHEMBL1800013, “Small molecule inhibitors of SHP2 tyrosine phosphatase discovered by virtual screening” (Bioorg Med Chem Lett, 2011) are described below.

Activity calls are given as the source filed them. The calls are words filed in the database; no cut-off is given here.

The inhibition is the change of the read-out against control, counted positive when it falls. As usually defined, the IC50 is the concentration needed to halve the response being measured.

The first assay addresses T1, Tyrosine-protein phosphatase non-receptor type 11 (Homo sapiens) (UniProt Q06124).
T1 sequence (whole entry): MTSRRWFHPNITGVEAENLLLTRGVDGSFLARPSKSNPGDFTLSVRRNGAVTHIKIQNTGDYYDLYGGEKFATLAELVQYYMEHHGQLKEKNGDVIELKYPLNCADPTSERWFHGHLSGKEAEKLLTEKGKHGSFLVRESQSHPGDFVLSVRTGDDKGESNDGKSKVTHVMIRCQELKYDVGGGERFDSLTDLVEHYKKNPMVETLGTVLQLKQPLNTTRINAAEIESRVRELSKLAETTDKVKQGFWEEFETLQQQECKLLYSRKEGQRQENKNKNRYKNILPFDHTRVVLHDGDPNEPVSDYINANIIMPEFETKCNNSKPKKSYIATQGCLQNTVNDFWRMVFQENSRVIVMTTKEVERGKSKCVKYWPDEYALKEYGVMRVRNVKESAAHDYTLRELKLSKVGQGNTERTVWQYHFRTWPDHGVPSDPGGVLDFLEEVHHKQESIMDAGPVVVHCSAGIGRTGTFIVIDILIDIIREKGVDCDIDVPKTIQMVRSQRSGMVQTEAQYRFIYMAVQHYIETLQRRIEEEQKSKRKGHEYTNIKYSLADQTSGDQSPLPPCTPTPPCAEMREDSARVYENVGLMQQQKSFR
The experiment in a line: Inhibition of SHP2 catalytic domain assessed as inhibition of pNPP to p-nitrophenol conversion at 1000 uM after 5 mins by spectrophotometry.
For the molecule `CC1=NN(c2ccc(S(=O)(=O)O)cc2C)C(=O)C1`, the inhibition result was “inactive”. Turning to `O=C(O)C1=NN(c2ccccc2)C(=O)C1`, the inhibition entry was “inactive”.

The target of a further assay is T2, Tyrosine-protein phosphatase non-receptor type 1 (Homo sapiens, UniProt P18031).
T2 sequence (P18031 whole entry): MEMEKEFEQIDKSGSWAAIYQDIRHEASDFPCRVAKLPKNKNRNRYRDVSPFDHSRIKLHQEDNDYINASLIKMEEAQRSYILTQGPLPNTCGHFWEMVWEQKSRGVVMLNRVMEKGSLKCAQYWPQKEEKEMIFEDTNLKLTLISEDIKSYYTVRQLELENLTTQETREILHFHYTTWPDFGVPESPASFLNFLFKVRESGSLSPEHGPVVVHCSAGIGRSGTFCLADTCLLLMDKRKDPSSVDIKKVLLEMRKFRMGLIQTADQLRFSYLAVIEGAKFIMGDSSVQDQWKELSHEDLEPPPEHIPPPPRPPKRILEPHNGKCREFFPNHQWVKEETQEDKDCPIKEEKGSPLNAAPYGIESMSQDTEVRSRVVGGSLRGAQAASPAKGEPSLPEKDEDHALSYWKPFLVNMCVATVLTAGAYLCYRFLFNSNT
The experiment in a line: Inhibition of PTP1B.
Turning to `CC(=O)c1c(C)oc2ccc(NS(=O)(=O)c3cccc(C(=O)O)c3)cc12`, 38 µM corresponded to half-maximal inhibition (IC50). `CC(=O)N(c1ccc2oc3c(c2c1)CCCC3)S(=O)(=O)c1ccc(C(=O)O)cc1` came in with an IC50 of 120 µM.

A further assay concerns the target T3, Tyrosine-protein phosphatase non-receptor type 11 (Homo sapiens, UniProt Q06124).
T3 sequence (Q06124 whole entry): T1 sequence (whole entry)
As to the kind of experiment: Inhibition of SHP2 catalytic domain assessed as inhibition of pNPP to p-nitrophenol conversion after 5 mins by spectrophotometry.
In the case of `CC(=O)c1c(C)oc2ccc(NS(=O)(=O)c3cccc(C(=O)O)c3)cc12`, the IC50 amounted to 176 µM. On to `CC(=O)N(c1ccc2oc3c(c2c1)CCCC3)S(=O)(=O)c1ccc(C(=O)O)cc1`, for which the IC50 turned out to be 181 µM. With `O=C(O)C1=NN(c2ccc(S(=O)(=O)O)cc2)C(=O)C1`, the 50% inhibitory concentration (IC50) came to 155 µM. The same measure, in the same setting: then `Cc1cc(S(=O)(=O)O)ccc1N1N=C(C(=O)O)CC1=O`, with 41 µM.

For another assay, the target named is Tyrosine-protein phosphatase non-receptor type 6 (Homo sapiens, UniProt P29350). The experiment in a line: Inhibition of SHP1.
Tyrosine-protein phosphatase non-receptor type 6, sequence (P29350 whole entry): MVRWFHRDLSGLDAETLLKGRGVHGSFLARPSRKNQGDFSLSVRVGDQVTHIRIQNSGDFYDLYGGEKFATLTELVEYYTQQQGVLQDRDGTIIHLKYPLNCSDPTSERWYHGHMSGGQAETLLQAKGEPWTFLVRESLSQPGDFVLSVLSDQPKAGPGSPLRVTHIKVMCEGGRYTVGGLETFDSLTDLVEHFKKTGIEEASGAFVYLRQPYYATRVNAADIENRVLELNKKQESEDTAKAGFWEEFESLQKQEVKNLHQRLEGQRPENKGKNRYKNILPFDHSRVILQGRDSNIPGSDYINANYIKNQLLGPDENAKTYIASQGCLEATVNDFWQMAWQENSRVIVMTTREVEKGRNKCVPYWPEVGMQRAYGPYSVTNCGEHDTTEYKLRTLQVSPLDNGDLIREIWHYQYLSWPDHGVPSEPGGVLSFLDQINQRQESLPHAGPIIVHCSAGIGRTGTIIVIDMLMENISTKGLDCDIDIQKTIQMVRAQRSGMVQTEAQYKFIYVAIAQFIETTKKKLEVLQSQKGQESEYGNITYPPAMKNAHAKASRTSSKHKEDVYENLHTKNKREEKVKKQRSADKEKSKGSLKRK
`CC(=O)c1c(C)oc2ccc(NS(=O)(=O)c3cccc(C(=O)O)c3)cc12` registered an IC50 of 85 µM.

As for `CC(=O)N(c1ccc2oc3c(c2c1)CCCC3)S(=O)(=O)c1ccc(C(=O)O)cc1`, 160 µM corresponded to half-maximal inhibition (IC50).

In the next assay the target is T1, Tyrosine-protein phosphatase non-receptor type 11 (Homo sapiens). As to the kind of experiment: Inhibition of SHP2 catalytic domain assessed as inhibition of pNPP to p-nitrophenol conversion at 50 uM after 5 mins by spectrophotometry.
Take `COc1cc(/C=C2\SC(=S)N(C(CC(=O)O)C(=O)O)C2=O)ccc1O` (centres undefined): the inhibition turned out to be 69.5%. On to `O=C(O)c1ccccc1NS(=O)(=O)c1cccc(C(=O)N2CCCc3ccccc32)c1`, for which the inhibition is 47%.

For `O=C(O)c1cccc(N/C(=N\S(=O)(=O)c2ccc(Cl)cc2)c2ccccc2)c1`, the inhibition was 10.5%. On the same count and under the same terms, then `O=C(O)c1ccc(NCc2ccccc2)c(NC(=O)C2CC=CCC2C(=O)O)c1` (centres undefined), with 43%; and `Cc1ccc(/C=C/C(=O)O)cc1S(=O)(=O)Nc1ccc(C(=O)O)cc1`, with 28%; and `O=C(O)c1ccc(NS(=O)(=O)c2cccc(C(=O)Nc3cccc(C(=O)O)c3)c2)cc1`, with 44%. Consider `O=C(CC(Cc1ccccc1)C(=O)O)Nc1ccc([N+](=O)[O-])cc1` (centres undefined), for which the inhibition amounted to 1%. In the case of `COc1ccc(C2Nc3ccc(C(=O)O)cc3C3C=CCC32)cc1[N+](=O)[O-]` (centres undefined), the inhibition stood at 1.5%. Turning to `Cc1cc(C(=O)O)ccc1NC(=O)C1CC=CCC1C(=O)O` (centres undefined), the inhibition is 13%. The same measure, in the same setting: as for `O=C(O)Cc1ccc2[nH]c3ccc(CC(=O)O)cc3c2c1`, the figure is 52.5%; as for `CC(=O)c1c(C)oc2ccc(NS(=O)(=O)c3cccc(C(=O)O)c3)cc12`, 71.5%. As to `O=C(O)c1ccc(C2(c3ccc(C(=O)O)cc3)OC(=O)c3ccccc32)cc1`, the inhibition was determined as 1.5%. For the molecule `O=C(O)c1cccc(NS(=O)(=O)c2ccc(Cl)c(C(=O)O)c2)c1`, the inhibition came out at 7%.

Take `CC(=O)N(c1ccc2oc3c(c2c1)CCCC3)S(=O)(=O)c1ccc(C(=O)O)cc1`: the inhibition was 74.5%. Still for that read-out and setting: then `CS(=O)(=O)N(CC(=O)Nc1ccccc1C(=O)O)c1ccc(F)cc1`, with 24%; and `O=C(O)c1ccc(/N=N/c2c(O)c(C(=O)O)cc3ccccc23)cc1`, with 8.5%; and `O=C(O)c1ccccc1NC(=O)c1ccccc1-c1ccccc1C(=O)O`, with 38%.

In the case of `O=C(O)/C=C/c1cccc(NS(=O)(=O)c2ccc(C(=O)O)cc2)c1`, the inhibition is 5.5%. On to `CC1CCN(S(=O)(=O)c2ccc3[nH]cc(C(=O)O)c(=O)c3c2)CC1`, for which the inhibition came to 0.5%. For the molecule `O=C(O)c1cccc(NS(=O)(=O)c2ccc3c4c(cccc24)C(=O)N3)c1`, the inhibition stood at 4.5%. `Cc1ccccc1NS(=O)(=O)c1cccc(C(=O)Nc2ccccc2C(=O)O)c1`: the inhibition is 50.5%.

In the case of `O=[N+]([O-])c1ccc(/C=N/Nc2ccc(S(=O)(=O)O)cc2)cc1`, the inhibition was 91.5%. Same read-out and setting: then `O=C(O)c1ccc(NS(=O)(=O)c2cc(C(=O)O)ccc2Br)cc1`, with 34.5%; and `O=C(O)c1cc(S(=O)(=O)Nc2ccccc2C(=O)O)ccc1Br`, with 4.5%. Take `O=C(O)c1ccccc1NS(=O)(=O)c1cccc2nsnc12`: the inhibition stood at 0%.

Regarding `CCOc1cc(/C=N/Nc2ccc(S(=O)(=O)O)cc2)ccc1O`, the inhibition turned out to be 51%. Take `O=C(O)c1ccc(CNS(=O)(=O)c2ccc(C(=O)O)cc2)cc1`: the inhibition amounted to 40.5%. On the same count and under the same terms, then `Cc1ccc(C(=O)O)cc1NC(=O)[C@H]1CC=CC[C@@H]1C(=O)O`, with 6%. As for `COc1ccc(/C=C2\C(=O)N(c3ccc(C(=O)O)cc3)N=C2C)cc1[N+](=O)[O-]`, the inhibition was 41%. Same read-out and setting: as for `O=C(O)c1cccc(-c2ccc(/C=C/[N+](=O)[O-])o2)c1`, the figure is 95%; as for `CC(=O)Nc1ccc(OS(=O)(=O)c2cccc(C(=O)O)c2)cc1`, 3.5%.

For `O=C(O)c1ccc(NC(=O)C2CC=CCC2C(=O)O)cc1O` (centres undefined), the inhibition was determined as 4.5%. In the case of `O=C(O)Cc1c(C(=O)O)[nH]c2ccc(C(=O)O)cc12`, the inhibition was found to be 1%.

`O=C(O)c1cc(N/C(=N\S(=O)(=O)c2ccccc2)c2ccccc2)ccc1O`: the inhibition was 12.5%.
